According to the kinase profiling compilation of Christmann-Franck et al. (2016):

Assays:
Test in all cases: radiometric filter-binding kinase assay, Kinase HotSpot
Conditions in all cases: compound 0.5 µM; ATP 10 µM
NEK11 (human) = NEK11 (human) (UniProt Q8NG66)
MET (human) = MET (human) (UniProt P08581)
PIM1 (human) = PIM1 (human) (UniProt P11309)
FES (human) = FES (human) (UniProt P07332)
CSNK1E (human) = CSNK1E (human) (UniProt P49674)
AURKC (human) = AURKC (human) (UniProt Q9UQB9)
DAPK2 (human) = DAPK2 (human) (UniProt Q9UIK4)
SLK (human) = SLK (human) (UniProt Q9H2G2)
RET (human) = RET (human) (UniProt P07949)
LRRK2 (human) = LRRK2 (human) (UniProt Q5S007)
CSNK1A1 (human) = CSNK1A1 (human) (UniProt P48729)
MERTK (human) = MERTK (human) (UniProt Q12866)
MAP3K5 (human) = MAP3K5 (human) (UniProt Q99683)
KIT (human) = KIT (human) (UniProt P10721)
ACVR1B (human) = ACVR1B (human) (UniProt P36896)
SRPK2 (human) = SRPK2 (human) (UniProt P78362)
CDC42BPB (human) = CDC42BPB (human) (UniProt Q9Y5S2)
NLK (human) = NLK (human) (UniProt Q9UBE8)
NTRK2 (human) = NTRK2 (human) (UniProt Q16620)
HIPK4 (human) = HIPK4 (human) (UniProt Q8NE63)
TGFBR2 (human) = TGFBR2 (human) (UniProt P37173)
RAF1 (human) = RAF1 (human) (UniProt P04049)
ALK (human) = ALK (human) (UniProt Q9UM73)
EGFR (human) = EGFR (human) (UniProt P00533)
PLK1 (human) = PLK1 (human) (UniProt P53350)
CAMK1D (human) = CAMK1D (human) (UniProt Q8IU85)
MATK (human) = MATK (human) (UniProt P42679)
RPS6KB2 (human) = RPS6KB2 (human) (UniProt Q9UBS0)
ROS1 (human) = ROS1 (human) (UniProt P08922)
MAP3K2 (human) = MAP3K2 (human) (UniProt Q9Y2U5)
PDPK1 (human) = PDPK1 (human) (UniProt O15530)
ZAP70 (human) = ZAP70 (human) (UniProt P43403)
ACVRL1 (human) = ACVRL1 (human) (UniProt P37023)
PAK2 (human) = PAK2 (human) (UniProt Q13177)
MAP3K10 (human) = MAP3K10 (human) (UniProt Q02779)
WNK2 (human) = WNK2 (human) (UniProt Q9Y3S1)
TNK2 (human) = TNK2 (human) (UniProt Q07912)
ROCK2 (human) = ROCK2 (human) (UniProt O75116)
FGFR4 (human) = FGFR4 (human) (UniProt P22455)
[1] = target: TYK2 JH1 catalytic (human) (UniProt P29597)
EPHA1 (human) = EPHA1 (human) (UniProt P21709)
FER (human) = FER (human) (UniProt P16591)

Chain of ROS1 (human) (P08922 whole entry, looked up): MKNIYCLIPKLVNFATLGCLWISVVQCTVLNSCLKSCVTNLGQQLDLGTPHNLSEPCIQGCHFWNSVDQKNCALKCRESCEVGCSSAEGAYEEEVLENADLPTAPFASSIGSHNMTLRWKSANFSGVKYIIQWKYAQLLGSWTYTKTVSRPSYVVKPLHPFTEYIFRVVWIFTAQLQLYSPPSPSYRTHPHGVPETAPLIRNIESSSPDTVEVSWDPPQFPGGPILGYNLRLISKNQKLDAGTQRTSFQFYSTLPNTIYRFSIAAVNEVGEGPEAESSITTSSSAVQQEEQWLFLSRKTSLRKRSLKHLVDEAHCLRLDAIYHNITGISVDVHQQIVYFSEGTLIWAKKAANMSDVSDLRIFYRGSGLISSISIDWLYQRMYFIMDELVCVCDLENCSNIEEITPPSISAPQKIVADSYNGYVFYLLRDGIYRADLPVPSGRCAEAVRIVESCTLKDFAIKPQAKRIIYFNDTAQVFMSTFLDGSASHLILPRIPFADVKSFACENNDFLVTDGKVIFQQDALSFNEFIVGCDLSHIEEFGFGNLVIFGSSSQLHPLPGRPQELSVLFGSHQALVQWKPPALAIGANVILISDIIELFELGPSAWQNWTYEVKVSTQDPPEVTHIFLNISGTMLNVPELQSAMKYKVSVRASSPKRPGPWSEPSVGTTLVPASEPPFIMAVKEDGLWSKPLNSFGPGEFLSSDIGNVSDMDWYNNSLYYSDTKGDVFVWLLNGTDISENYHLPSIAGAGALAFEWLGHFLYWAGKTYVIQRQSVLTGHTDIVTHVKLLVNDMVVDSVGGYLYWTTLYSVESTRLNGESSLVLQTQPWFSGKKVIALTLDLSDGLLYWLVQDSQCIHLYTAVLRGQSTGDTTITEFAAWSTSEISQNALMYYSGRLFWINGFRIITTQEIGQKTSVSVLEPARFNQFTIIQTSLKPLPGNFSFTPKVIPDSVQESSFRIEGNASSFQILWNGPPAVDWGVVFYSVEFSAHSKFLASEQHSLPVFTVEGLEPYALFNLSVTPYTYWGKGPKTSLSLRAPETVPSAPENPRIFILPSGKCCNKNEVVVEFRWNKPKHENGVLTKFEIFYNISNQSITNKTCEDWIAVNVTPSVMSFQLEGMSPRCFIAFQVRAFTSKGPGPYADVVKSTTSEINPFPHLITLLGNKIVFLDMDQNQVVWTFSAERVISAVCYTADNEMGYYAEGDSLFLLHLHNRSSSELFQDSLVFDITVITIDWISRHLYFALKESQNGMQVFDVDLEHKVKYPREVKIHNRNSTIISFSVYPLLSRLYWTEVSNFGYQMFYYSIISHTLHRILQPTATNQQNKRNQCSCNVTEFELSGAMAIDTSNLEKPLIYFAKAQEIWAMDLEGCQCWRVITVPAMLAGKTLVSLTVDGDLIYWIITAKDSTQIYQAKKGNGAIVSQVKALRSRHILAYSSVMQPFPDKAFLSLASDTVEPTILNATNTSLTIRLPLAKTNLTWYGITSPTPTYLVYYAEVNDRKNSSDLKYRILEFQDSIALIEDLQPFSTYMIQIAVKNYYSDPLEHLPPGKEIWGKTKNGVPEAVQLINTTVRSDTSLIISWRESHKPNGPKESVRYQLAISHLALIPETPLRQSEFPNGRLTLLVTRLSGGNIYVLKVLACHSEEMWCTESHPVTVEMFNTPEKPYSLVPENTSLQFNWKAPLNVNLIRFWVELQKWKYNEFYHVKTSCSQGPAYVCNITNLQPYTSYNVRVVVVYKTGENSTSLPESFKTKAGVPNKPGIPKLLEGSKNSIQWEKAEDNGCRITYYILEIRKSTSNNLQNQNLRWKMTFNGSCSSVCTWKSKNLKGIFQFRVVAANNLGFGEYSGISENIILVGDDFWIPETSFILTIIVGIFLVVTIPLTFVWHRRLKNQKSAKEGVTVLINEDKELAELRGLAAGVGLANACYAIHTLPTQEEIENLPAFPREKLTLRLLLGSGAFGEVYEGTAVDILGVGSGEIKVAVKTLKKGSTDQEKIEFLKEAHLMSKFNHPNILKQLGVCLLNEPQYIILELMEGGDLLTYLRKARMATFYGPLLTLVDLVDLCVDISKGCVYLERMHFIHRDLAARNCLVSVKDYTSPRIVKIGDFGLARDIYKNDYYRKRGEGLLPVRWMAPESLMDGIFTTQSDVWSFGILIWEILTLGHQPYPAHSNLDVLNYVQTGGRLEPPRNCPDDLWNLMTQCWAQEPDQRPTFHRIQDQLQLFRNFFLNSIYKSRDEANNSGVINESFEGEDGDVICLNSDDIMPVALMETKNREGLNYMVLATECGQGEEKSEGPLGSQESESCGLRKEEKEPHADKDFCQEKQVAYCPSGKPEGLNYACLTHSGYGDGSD
Chain of MATK (human) (P42679 whole entry, looked up): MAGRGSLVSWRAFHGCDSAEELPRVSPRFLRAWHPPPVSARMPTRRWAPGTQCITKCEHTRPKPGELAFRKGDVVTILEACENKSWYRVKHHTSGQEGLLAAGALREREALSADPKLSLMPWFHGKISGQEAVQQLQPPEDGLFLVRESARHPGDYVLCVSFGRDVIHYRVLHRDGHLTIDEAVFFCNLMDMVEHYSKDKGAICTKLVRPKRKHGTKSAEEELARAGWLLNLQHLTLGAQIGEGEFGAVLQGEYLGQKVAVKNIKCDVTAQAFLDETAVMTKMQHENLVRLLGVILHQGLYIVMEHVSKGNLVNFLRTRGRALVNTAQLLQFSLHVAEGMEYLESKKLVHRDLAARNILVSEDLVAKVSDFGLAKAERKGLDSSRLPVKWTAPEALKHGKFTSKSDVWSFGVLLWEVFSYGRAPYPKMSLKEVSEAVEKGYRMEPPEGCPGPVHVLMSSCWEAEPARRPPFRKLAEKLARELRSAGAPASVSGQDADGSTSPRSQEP
Chain of PDPK1 (human) (O15530 whole entry, looked up): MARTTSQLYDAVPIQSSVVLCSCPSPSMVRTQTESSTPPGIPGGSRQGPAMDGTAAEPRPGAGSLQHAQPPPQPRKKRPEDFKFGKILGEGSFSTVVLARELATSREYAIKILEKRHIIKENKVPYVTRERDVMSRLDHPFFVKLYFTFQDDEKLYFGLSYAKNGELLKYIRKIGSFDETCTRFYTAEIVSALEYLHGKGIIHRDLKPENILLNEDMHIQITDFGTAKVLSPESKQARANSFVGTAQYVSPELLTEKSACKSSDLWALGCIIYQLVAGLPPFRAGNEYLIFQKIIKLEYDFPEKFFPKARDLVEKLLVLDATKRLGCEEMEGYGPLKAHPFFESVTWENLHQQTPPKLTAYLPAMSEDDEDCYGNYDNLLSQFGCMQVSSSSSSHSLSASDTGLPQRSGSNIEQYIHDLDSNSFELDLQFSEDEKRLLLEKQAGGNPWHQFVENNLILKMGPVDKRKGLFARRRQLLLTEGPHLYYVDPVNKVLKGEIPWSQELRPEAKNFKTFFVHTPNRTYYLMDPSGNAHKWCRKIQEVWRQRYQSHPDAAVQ
Chain of TGFBR2 (human) (P37173 whole entry, looked up): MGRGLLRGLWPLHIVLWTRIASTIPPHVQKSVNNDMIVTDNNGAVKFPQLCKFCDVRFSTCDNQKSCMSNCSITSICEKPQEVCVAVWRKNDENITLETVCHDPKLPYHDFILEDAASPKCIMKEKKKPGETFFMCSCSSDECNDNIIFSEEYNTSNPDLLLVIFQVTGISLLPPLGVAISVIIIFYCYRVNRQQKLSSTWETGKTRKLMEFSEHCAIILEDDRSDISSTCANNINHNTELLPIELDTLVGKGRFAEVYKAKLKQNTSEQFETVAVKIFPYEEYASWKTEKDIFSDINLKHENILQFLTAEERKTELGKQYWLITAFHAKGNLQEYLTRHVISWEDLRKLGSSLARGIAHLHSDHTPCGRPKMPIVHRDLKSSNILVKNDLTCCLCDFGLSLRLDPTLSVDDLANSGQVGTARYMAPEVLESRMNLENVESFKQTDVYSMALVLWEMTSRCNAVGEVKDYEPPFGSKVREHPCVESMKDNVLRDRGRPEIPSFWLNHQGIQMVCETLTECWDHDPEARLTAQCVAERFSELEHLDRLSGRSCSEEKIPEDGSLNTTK
Chain of NTRK2 (human) (Q16620 whole entry, looked up): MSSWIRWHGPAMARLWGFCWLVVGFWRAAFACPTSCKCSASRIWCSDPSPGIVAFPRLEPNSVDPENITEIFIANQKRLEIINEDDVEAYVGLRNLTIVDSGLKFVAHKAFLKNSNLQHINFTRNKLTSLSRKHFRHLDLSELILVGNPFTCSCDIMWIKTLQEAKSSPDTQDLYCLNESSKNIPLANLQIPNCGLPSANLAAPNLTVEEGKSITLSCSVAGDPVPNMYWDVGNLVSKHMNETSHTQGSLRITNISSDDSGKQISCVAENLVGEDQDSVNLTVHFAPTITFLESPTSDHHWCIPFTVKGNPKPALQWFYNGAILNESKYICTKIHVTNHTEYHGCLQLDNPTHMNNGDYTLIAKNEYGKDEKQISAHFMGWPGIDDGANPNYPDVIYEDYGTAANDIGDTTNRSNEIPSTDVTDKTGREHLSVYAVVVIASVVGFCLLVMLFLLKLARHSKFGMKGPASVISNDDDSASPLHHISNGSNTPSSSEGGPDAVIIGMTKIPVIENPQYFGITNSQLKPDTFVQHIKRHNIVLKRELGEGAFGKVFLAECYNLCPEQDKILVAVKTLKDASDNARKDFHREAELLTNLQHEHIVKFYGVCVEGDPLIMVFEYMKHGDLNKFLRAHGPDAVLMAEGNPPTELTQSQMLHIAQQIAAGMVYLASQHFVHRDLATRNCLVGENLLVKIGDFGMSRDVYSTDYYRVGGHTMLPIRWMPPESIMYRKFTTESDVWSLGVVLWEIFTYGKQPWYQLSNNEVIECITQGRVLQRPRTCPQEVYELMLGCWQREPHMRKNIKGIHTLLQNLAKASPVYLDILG

`Nc1nnc2[nH]c3ccccc3nc1-2` showed a residual activity (NEK11 (human)) of 110%, a residual activity (MET (human)) of 90.1% and a residual activity (PIM1 (human)) of 94%. It also gave a residual activity (FES (human)) of 96.8%, a residual activity (CSNK1E (human)) of 90.2% and a residual activity (AURKC (human)) of 90.8%. The residual activity (DAPK2 (human)) was 91%, the residual activity (SLK (human)) was 92.5% and the residual activity (RET (human)) was 97.1%. For the same compound, the residual activity (LRRK2 (human)) was 90.5%, the residual activity (CSNK1A1 (human)) was 101% and the residual activity (MERTK (human)) was 92.9%. It also gave a residual activity (MAP3K5 (human)) of 103%, a residual activity (KIT (human)) of 100% and a residual activity (ACVR1B (human)) of 99.9%. It also gave a residual activity (SRPK2 (human)) of 95.9%, a residual activity (CDC42BPB (human)) of 100% and a residual activity (NLK (human)) of 95.2%. It also gave a residual activity (NTRK2 (human)) of 96.4%, a residual activity (HIPK4 (human)) of 95.8% and a residual activity (TGFBR2 (human)) of 82.4%. For the same compound, the residual activity (RAF1 (human)) was 94.4%, the residual activity (ALK (human)) was 96.7% and the residual activity (EGFR (human)) was 96.4%. The residual activity (PLK1 (human)) was 94.5%, the residual activity (CAMK1D (human)) was 98.3% and the residual activity (MATK (human)) was 91.9%. It also gave a residual activity (RPS6KB2 (human)) of 102%, a residual activity (ROS1 (human)) of 106% and a residual activity (MAP3K2 (human)) of 92.6%. For the same compound, the residual activity (PDPK1 (human)) was 96.8%, the residual activity (ZAP70 (human)) was 102% and the residual activity (ACVRL1 (human)) was 105%. For the same compound, the residual activity (PAK2 (human)) was 104%, the residual activity (MAP3K10 (human)) was 93.1% and the residual activity (WNK2 (human)) was 95.9%. The residual activity (TNK2 (human)) was 101%, the residual activity (ROCK2 (human)) was 93.3% and the residual activity (FGFR4 (human)) was 94.9%. It also gave a residual activity [1] of 107%, a residual activity (EPHA1 (human)) of 100% and a residual activity (FER (human)) of 94.4%.

With `COc1cc2ncc(-c3ccccc3)nc2cc1OC` the residual activity (NEK11 (human)) was 114%, the residual activity (MET (human)) was 92.6% and the residual activity (PIM1 (human)) was 95.9%. The residual activity (FES (human)) was 105%, the residual activity (CSNK1E (human)) was 79.3% and the residual activity (AURKC (human)) was 90.1%. For the same compound, the residual activity (DAPK2 (human)) was 97.3%, the residual activity (SLK (human)) was 97.3% and the residual activity (RET (human)) was 84.4%. It also gave a residual activity (LRRK2 (human)) of 84.9%, a residual activity (CSNK1A1 (human)) of 100% and a residual activity (MERTK (human)) of 80%. It also gave a residual activity (MAP3K5 (human)) of 108%, a residual activity (KIT (human)) of 67.3% and a residual activity (ACVR1B (human)) of 95.2%. For the same compound, the residual activity (SRPK2 (human)) was 84.4%, the residual activity (CDC42BPB (human)) was 93.3% and the residual activity (NLK (human)) was 89.3%. For the same compound, the residual activity (NTRK2 (human)) was 99.5%, the residual activity (HIPK4 (human)) was 86.4% and the residual activity (TGFBR2 (human)) was 75%. For the same compound, the residual activity (RAF1 (human)) was 106%, the residual activity (ALK (human)) was 94.1% and the residual activity (EGFR (human)) was 82.9%. The residual activity (PLK1 (human)) was 98.5%, the residual activity (CAMK1D (human)) was 96.6% and the residual activity (MATK (human)) was 101%. For the same compound, the residual activity (RPS6KB2 (human)) was 104%, the residual activity (ROS1 (human)) was 100% and the residual activity (MAP3K2 (human)) was 92.5%. It also gave a residual activity (PDPK1 (human)) of 92.6%, a residual activity (ZAP70 (human)) of 98.6% and a residual activity (ACVRL1 (human)) of 95.8%. The residual activity (PAK2 (human)) was 85.6%, the residual activity (MAP3K10 (human)) was 105% and the residual activity (WNK2 (human)) was 104%. The residual activity (TNK2 (human)) was 93.2%, the residual activity (ROCK2 (human)) was 96.1% and the residual activity (FGFR4 (human)) was 78.7%. It also gave a residual activity [1] of 93.9%, a residual activity (EPHA1 (human)) of 95.8% and a residual activity (FER (human)) of 80%.

For `Cn1nc2c3c(cccc31)C(=O)c1ccccc1-2`, the residual activity (NEK11 (human)) was 105%, the residual activity (MET (human)) was 107% and the residual activity (PIM1 (human)) was 80.3%. The residual activity (FES (human)) was 94.4%, the residual activity (CSNK1E (human)) was 34.3% and the residual activity (AURKC (human)) was 89.3%. For the same compound, the residual activity (DAPK2 (human)) was 104%, the residual activity (SLK (human)) was 103% and the residual activity (RET (human)) was 83.8%. It also gave a residual activity (LRRK2 (human)) of 55.9%, a residual activity (CSNK1A1 (human)) of 47.8% and a residual activity (MERTK (human)) of 95.9%. The residual activity (MAP3K5 (human)) was 93.1%, the residual activity (KIT (human)) was 86.4% and the residual activity (ACVR1B (human)) was 102%. It also gave a residual activity (SRPK2 (human)) of 97.2%, a residual activity (CDC42BPB (human)) of 98% and a residual activity (NLK (human)) of 100%. The residual activity (NTRK2 (human)) was 84%, the residual activity (HIPK4 (human)) was 102% and the residual activity (TGFBR2 (human)) was 94.9%. The residual activity (RAF1 (human)) was 87%, the residual activity (ALK (human)) was 87.4% and the residual activity (EGFR (human)) was 105%. It also gave a residual activity (PLK1 (human)) of 97%, a residual activity (CAMK1D (human)) of 70.3% and a residual activity (MATK (human)) of 88%. It also gave a residual activity (RPS6KB2 (human)) of 94.7%, a residual activity (ROS1 (human)) of 104% and a residual activity (MAP3K2 (human)) of 103%. The residual activity (PDPK1 (human)) was 94.5%, the residual activity (ZAP70 (human)) was 95.1% and the residual activity (ACVRL1 (human)) was 102%. For the same compound, the residual activity (PAK2 (human)) was 102%, the residual activity (MAP3K10 (human)) was 91.4% and the residual activity (WNK2 (human)) was 104%. The residual activity (TNK2 (human)) was 83.3%, the residual activity (ROCK2 (human)) was 92.3% and the residual activity (FGFR4 (human)) was 108%. For the same compound, the residual activity [1] was 89.4%, the residual activity (EPHA1 (human)) was 94.8% and the residual activity (FER (human)) was 99.2%.

For `COc1ccc(OC)c2c(=S)c3ccccc3[nH]c12`, the residual activity (NEK11 (human)) was 130%, the residual activity (MET (human)) was 99.2% and the residual activity (PIM1 (human)) was 93%. For the same compound, the residual activity (FES (human)) was 102%, the residual activity (CSNK1E (human)) was 90.3% and the residual activity (AURKC (human)) was 88.2%. For the same compound, the residual activity (DAPK2 (human)) was 94%, the residual activity (SLK (human)) was 80.2% and the residual activity (RET (human)) was 82.8%. The residual activity (LRRK2 (human)) was 98%, the residual activity (CSNK1A1 (human)) was 102% and the residual activity (MERTK (human)) was 86.7%. The residual activity (MAP3K5 (human)) was 115%, the residual activity (KIT (human)) was 78.6% and the residual activity (ACVR1B (human)) was 108%. The residual activity (SRPK2 (human)) was 95.1%, the residual activity (CDC42BPB (human)) was 106% and the residual activity (NLK (human)) was 98.8%. For the same compound, the residual activity (NTRK2 (human)) was 94%, the residual activity (HIPK4 (human)) was 97.3% and the residual activity (TGFBR2 (human)) was 109%. For the same compound, the residual activity (RAF1 (human)) was 88.2%, the residual activity (ALK (human)) was 105% and the residual activity (EGFR (human)) was 91%. It also gave a residual activity (PLK1 (human)) of 93.6%, a residual activity (CAMK1D (human)) of 104% and a residual activity (MATK (human)) of 89.5%. For the same compound, the residual activity (RPS6KB2 (human)) was 105%, the residual activity (ROS1 (human)) was 103% and the residual activity (MAP3K2 (human)) was 101%. It also gave a residual activity (PDPK1 (human)) of 94.9%, a residual activity (ZAP70 (human)) of 100% and a residual activity (ACVRL1 (human)) of 99%. The residual activity (PAK2 (human)) was 104%, the residual activity (MAP3K10 (human)) was 92.8% and the residual activity (WNK2 (human)) was 89.8%. The residual activity (TNK2 (human)) was 96.3%, the residual activity (ROCK2 (human)) was 90.4% and the residual activity (FGFR4 (human)) was 91.1%. The residual activity [1] was 108%, the residual activity (EPHA1 (human)) was 89% and the residual activity (FER (human)) was 84%.
